This experiment has as its target T1, CGRP1 receptor (Homo sapiens, UniProt O60894+Q16602).
T1 construct: SK-N-MC cells express CRLR and RAMP1, which form CGRP1 receptor; endogenous in cells; host or cells: SK-N-MC human neuroblastoma cells
The experiment in a line: in vitro CGRP1 receptor mediated cAMP assay in SK-N-MC cells. Particulars: unconjugated peptide. The format is cell-based. In outline: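 Human SK-N-MC neuroblastoma cells, which endogenously express CRLR/RAMP1, were plated two days before assay and preincubated in plasma-free medium for 15 minutes at room temperature. Cells were then lysed for 30 minutes at 37° C, and cAMP in the lysates was quantified by competitive cAMP-AP chemiluminescent ELISA.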
On the technique in general: Cyclic AMP is a second messenger, typically raised through Gs and lowered through Gi signalling.

The mark [1] stands for this setting: Table 2C, read-out: Peptide IC50.

Each structure is given as a SMILES string. Read-outs that look alike come from different tables or passages of the source. Bridge positions count the residues as written; N and C are the ends. Square brackets hold non-standard residues; d marks the D form. Peptide text beside a SMILES is read from it. 2Nal = N[C@@H](Cc1ccc2ccccc2c1)C(=O)O; hArg = N=C(N)NCCCC[C@H](N)C(=O)O; Cit = NC(=O)NCCC[C@H](N)C(=O)O; Aze = O=C(O)[C@@H]1CCN1; Ahx = NCCCCCC(=O)O

The term IC50 denotes the concentration at which inhibition is half-maximal.

T1 sequence (Q16602 23-461): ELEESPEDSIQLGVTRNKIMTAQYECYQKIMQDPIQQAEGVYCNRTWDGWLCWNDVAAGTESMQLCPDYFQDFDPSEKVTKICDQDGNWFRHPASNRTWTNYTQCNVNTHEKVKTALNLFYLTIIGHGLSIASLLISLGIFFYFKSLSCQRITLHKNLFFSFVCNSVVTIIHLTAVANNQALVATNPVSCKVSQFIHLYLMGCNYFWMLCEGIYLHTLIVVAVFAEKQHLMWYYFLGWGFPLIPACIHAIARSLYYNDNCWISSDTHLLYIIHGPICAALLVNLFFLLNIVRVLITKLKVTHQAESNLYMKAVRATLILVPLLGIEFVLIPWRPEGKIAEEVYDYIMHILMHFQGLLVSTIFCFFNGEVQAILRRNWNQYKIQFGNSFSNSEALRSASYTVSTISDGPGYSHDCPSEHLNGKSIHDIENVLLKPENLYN
T1 sequence (O60894 27-148): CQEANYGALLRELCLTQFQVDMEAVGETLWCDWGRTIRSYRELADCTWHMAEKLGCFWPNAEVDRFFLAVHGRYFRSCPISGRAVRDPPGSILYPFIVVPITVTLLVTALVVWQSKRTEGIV

As for `CC(=O)N[C@@H](Cc1c[nH]c2ccccc12)C(=O)N[C@H](C(=O)N[C@H]1CCC(=O)NCCCC[C@@H](C(=O)NCC(=O)N[C@H]2CCC(=O)NCCCC[C@@H](C(=O)NCC(=O)NCC(=O)N[C@H](C(=O)N[C@H](C(=O)N[C@@H](CCCCNC(=N)N)C(=O)N[C@@H](CCCCN)C(=O)N[C@@H](CC(N)=O)C(=O)N[C@@H](Cc3ccccc3)C(=O)N[C@H](C(=O)N3CCC[C@H]3C(=O)N[C@H](C(=O)N[C@@H](CC(=O)O)C(=O)N[C@H](C(=O)NCC(=O)N3CCC[C@H]3C(=O)N[C@@H](Cc3ccccc3)C(=O)N[C@@H](C)C(=O)N[C@@H](Cc3ccccc3)C(N)=O)C(C)C)[C@@H](C)O)C(C)C)C(C)C)C(C)C)NC(=O)[C@H](CCCNC(N)=O)NC(=O)[C@H](CO)NC(=O)[C@H](CC(C)C)NC2=O)NC(=O)[C@H](CC(C)C)NC(=O)[C@H](CCCNC(=N)N)NC(=O)[C@H](Cc2c[nH]cn2)NC1=O)C(C)C` [compound 902], the IC50 under setting [1] stood at 0.49 nM.
`CC(=O)N[C@@H](Cc1c[nH]c2ccccc12)C(=O)N[C@H](C(=O)N[C@H]1CCC(=O)NCCCC[C@@H](C(=O)NCC(=O)N[C@@H](CC(C)C)C(=O)N[C@@H](CC(C)C)C(=O)N[C@@H](CO)C(=O)N[C@@H](CCCCNC(=N)N)C(=O)N[C@@H](CO)C(=O)NCC(=O)NCC(=O)N[C@H](C(=O)N[C@H](C(=O)N[C@@H](CCCCNC(=N)N)C(=O)N[C@@H](CCCCN)C(=O)N[C@@H](CC(N)=O)C(=O)N[C@@H](Cc2ccccc2)C(=O)N[C@H](C(=O)N2CCC[C@H]2C(=O)N[C@H](C(=O)N[C@@H](CC(=O)O)C(=O)N[C@H](C(=O)NCC(=O)N2CCC[C@H]2C(=O)N[C@@H](Cc2ccccc2)C(=O)N[C@@H](C)C(=O)N[C@@H](Cc2ccccc2)C(N)=O)C(C)C)[C@@H](C)O)C(C)C)C(C)C)C(C)C)NC(=O)[C@H](CC(C)C)NC(=O)[C@H](CCCNC(=N)N)NC(=O)[C@H](Cc2c[nH]cn2)NC1=O)C(C)C` [compound 905] (Ac-WVEHRLKGLLS[hArg]SGGVV[hArg]KNFVPTDVGPFAF-NH2; lactam 3-7) showed a half-inhibitory concentration (IC50) (Peptide IC50, Table 2C) of 1.7 nM.
`CC(=O)N[C@@H](Cc1c[nH]c2ccccc12)C(=O)N[C@H](C(=O)N[C@H]1CCC(=O)NCCCC[C@@H](C(=O)NCC(=O)N[C@@H](CC(C)C)C(=O)N[C@@H](CC(C)C)C(=O)N[C@@H](CO)C(=O)N[C@@H](CCCNC(N)=O)C(=O)N[C@@H](CO)C(=O)NCC(=O)NCC(=O)N[C@H](C(=O)N[C@H](C(=O)N[C@@H](CCCCNC(=N)N)C(=O)N[C@@H](CCCCN)C(=O)N[C@@H](CC(N)=O)C(=O)N[C@@H](Cc2ccccc2)C(=O)N[C@H](C(=O)N2CCC[C@H]2C(=O)N[C@H](C(=O)N[C@@H](CC(=O)O)C(=O)N[C@H](C(=O)NCC(=O)N2CCC[C@H]2C(=O)N[C@@H](Cc2ccccc2)C(=O)N[C@@H](C)C(=O)N[C@@H](Cc2ccccc2)C(N)=O)C(C)C)[C@@H](C)O)C(C)C)C(C)C)C(C)C)NC(=O)[C@H](CC(C)C)NC(=O)[C@H](CCCNC(=N)N)NC(=O)[C@H](Cc2c[nH]cn2)NC1=O)C(C)C` [compound 906] (Ac-WVEHRLKGLLS[Cit]SGGVV[hArg]KNFVPTDVGPFAF-NH2; lactam 3-7) returned a concentration for half-maximal inhibition (IC50) (Peptide IC50, Table 2C) of 1.15 nM.
Regarding `CC(=O)N[C@@H](Cc1c[nH]c2ccccc12)C(=O)N[C@H](C(=O)N[C@H]1CCC(=O)NCCCC[C@@H](C(=O)NCC(=O)N[C@@H](CC(C)C)C(=O)N[C@@H](CC(C)C)C(=O)N[C@@H](CO)C(=O)N[C@@H](CCCNC(N)=O)C(=O)N[C@@H](CO)C(=O)NCC(=O)NCC(=O)N[C@H](C(=O)N[C@H](C(=O)N[C@@H](CCCCNC(=N)N)C(=O)N[C@@H](CCCCN)C(=O)N[C@@H](CC(N)=O)C(=O)N[C@@H](Cc2ccccc2)C(=O)N[C@H](C(=O)N2CCC[C@H]2C(=O)N[C@H](C(=O)N[C@@H](CC(=O)O)C(=O)N[C@H](C(=O)NCC(=O)N2CCC[C@H]2C(=O)N[C@@H](Cc2ccccc2)C(=O)N[C@@H](C)C(=O)N[C@@H](Cc2ccccc2)C(N)=O)C(C)C)[C@@H](C)O)C(C)C)C(C)C)C(C)C)NC(=O)[C@H](CC(C)C)NC(=O)[C@H](CCCNC(N)=O)NC(=O)[C@H](Cc2c[nH]cn2)NC1=O)C(C)C` [compound 907] (Ac-WVEH[Cit]LKGLLS[Cit]SGGVV[hArg]KNFVPTDVGPFAF-NH2; lactam 3-7), the IC50 under setting [1] came out at 0.83 nM.
Same read-out and setting: with `CC(=O)N[C@@H](Cc1c[nH]c2ccccc12)C(=O)N[C@H](C(=O)N[C@H]1CCC(=O)NCCCC[C@@H](C(=O)NCC(=O)N[C@@H](CC(C)C)C(=O)N[C@@H](CC(C)C)C(=O)N[C@@H](CO)C(=O)N[C@@H](CCCNC(N)=O)C(=O)N[C@@H](CO)C(=O)NCC(=O)NCC(=O)N[C@H](C(=O)N[C@H](C(=O)N[C@@H](CCCCNC(=N)N)C(=O)N[C@@H](CCCCN)C(=O)N[C@@H](CC(N)=O)C(=O)N[C@@H](Cc2ccccc2)C(=O)N[C@H](C(=O)N2CCC[C@H]2C(=O)N[C@H](C(=O)N[C@@H](CC(=O)O)C(=O)N[C@H](C(=O)NCC(=O)N2CCC[C@H]2C(=O)N[C@@H](Cc2ccccc2)C(=O)N[C@@H](C)C(=O)N[C@@H](Cc2ccccc2)C(N)=O)C(C)C)[C@@H](C)O)C(C)C)C(C)C)C(C)C)NC(=O)[C@H](CC(C)C)NC(=O)[C@H](CCCCNC(=N)N)NC(=O)[C@H](Cc2c[nH]cn2)NC1=O)C(C)C` [compound 908] (Ac-WVEH[hArg]LKGLLS[Cit]SGGVV[hArg]KNFVPTDVGPFAF-NH2; lactam 3-7) the figure was 1.28 nM; with `CC(=O)N[C@@H](Cc1c[nH]c2ccccc12)C(=O)N[C@H](C(=O)N[C@H]1CCC(=O)NCCCC[C@@H](C(=O)NCC(=O)N[C@@H](CC(C)C)C(=O)N[C@@H](CC(C)C)C(=O)N[C@@H](CO)C(=O)N[C@@H](CCCNC(N)=O)C(=O)N[C@@H](CO)C(=O)NCC(=O)N2CC[C@H]2C(=O)N[C@H](C(=O)N[C@H](C(=O)N[C@@H](CCCCNC(=N)N)C(=O)N[C@@H](CCCCN)C(=O)N[C@@H](CC(N)=O)C(=O)N[C@@H](Cc2ccccc2)C(=O)N[C@H](C(=O)N2CCC[C@H]2C(=O)N[C@H](C(=O)N[C@@H](CC(=O)O)C(=O)N[C@H](C(=O)NCC(=O)N2CCC[C@H]2C(=O)N[C@@H](Cc2ccccc2)C(=O)N[C@@H](C)C(=O)N[C@@H](Cc2ccccc2)C(N)=O)C(C)C)[C@@H](C)O)C(C)C)C(C)C)C(C)C)NC(=O)[C@H](CC(C)C)NC(=O)[C@H](CCCCNC(=N)N)NC(=O)[C@H](Cc2c[nH]cn2)NC1=O)C(C)C` [compound 909] (Ac-WVEH[hArg]LKGLLS[Cit]SG[Aze]VV[hArg]KNFVPTDVGPFAF-NH2; lactam 3-7), 3.45 nM; with `CC(=O)N[C@@H](Cc1cccc2ccccc12)C(=O)N[C@H](C(=O)N[C@@H](CCC(=O)O)C(=O)N[C@@H](Cc1c[nH]cn1)C(=O)N[C@@H](CCCCNC(=N)N)C(=O)N[C@@H](CC(C)C)C(=O)N[C@@H](CCCCN)C(=O)NCC(=O)N[C@@H](CC(C)C)C(=O)N[C@@H](CC(C)C)C(=O)N[C@@H](CO)C(=O)N[C@@H](CCCNC(N)=O)C(=O)N[C@@H](CO)C(=O)NCC(=O)N1CC[C@H]1C(=O)N[C@H](C(=O)N[C@H](C(=O)N[C@@H](CCCCNC(=N)N)C(=O)N[C@@H](CCCCN)C(=O)N[C@@H](CC(N)=O)C(=O)N[C@@H](Cc1ccccc1)C(=O)N[C@H](C(=O)N1CCC[C@H]1C(=O)N[C@H](C(=O)N[C@@H](CC(=O)O)C(=O)N[C@H](C(=O)NCC(=O)N1CCC[C@H]1C(=O)N[C@@H](Cc1ccccc1)C(=O)N[C@@H](C)C(=O)N[C@@H](Cc1ccccc1)C(N)=O)C(C)C)[C@@H](C)O)C(C)C)C(C)C)C(C)C)C(C)C` [compound 910], 2.31 nM.
Same read-out and setting: the value for `CC(=O)N[C@@H](Cc1c[nH]c2ccccc12)C(=O)N[C@H](C(=O)N[C@H](C(=O)N[C@@H](Cc1c[nH]cn1)C(=O)N[C@@H](CCCNC(=N)N)C(=O)N[C@@H](CC(C)C)C(=O)N[C@@H](C)C(=O)NCC(=O)N[C@@H](CC(C)C)C(=O)N[C@@H](CC(C)C)C(=O)N[C@@H](CO)C(=O)N[C@@H](CCCNC(=N)N)C(=O)N[C@@H](CO)C(=O)NCC(=O)NCC(=O)N[C@H](C(=O)N[C@H](C(=O)N[C@@H](CCCNC(=N)N)C(=O)N[C@@H](CCCCN)C(=O)N[C@@H](CC(N)=O)C(=O)N[C@@H](Cc1ccc2ccccc2c1)C(=O)N[C@H](C(=O)N1CCC[C@H]1C(=O)N[C@H](C(=O)N[C@@H](CC(=O)O)C(=O)N[C@H](C(=O)NCC(=O)N1CCC[C@H]1C(=O)N[C@@H](Cc1ccccc1)C(=O)N[C@@H](C)C(=O)N[C@@H](Cc1ccccc1)C(N)=O)C(C)C)[C@@H](C)O)C(C)C)C(C)C)C(C)C)[C@@H](C)O)C(C)C` [compound 912] (Ac-WVTHRLAGLLSRSGGVVRKN[2Nal]VPTDVGPFAF-NH2) was 1.16 nM; that for `CC(C)C[C@H](NC(=O)CNC(=O)[C@H](C)NC(=O)[C@H](CC(C)C)NC(=O)[C@H](CCCNC(=N)N)NC(=O)[C@H](Cc1c[nH]cn1)NC(=O)[C@@H](NC(=O)[C@@H](NC(=O)[C@H](Cc1c[nH]c2ccccc12)NC(=O)CCCCCNC(=O)[C@@H](N)CS)C(C)C)[C@@H](C)O)C(=O)N[C@@H](CC(C)C)C(=O)N[C@@H](CO)C(=O)N[C@@H](CCCNC(=N)N)C(=O)N[C@@H](CO)C(=O)NCC(=O)NCC(=O)N[C@H](C(=O)N[C@H](C(=O)N[C@@H](CCCNC(=N)N)C(=O)N[C@@H](CCCCN)C(=O)N[C@@H](CC(N)=O)C(=O)N[C@@H](Cc1ccccc1)C(=O)N[C@H](C(=O)N1CCC[C@H]1C(=O)N[C@H](C(=O)N[C@@H](CC(=O)O)C(=O)N[C@H](C(=O)NCC(=O)N1CCC[C@H]1C(=O)N[C@@H](Cc1ccccc1)C(=O)N[C@@H](C)C(=O)N[C@@H](Cc1ccccc1)C(N)=O)C(C)C)[C@@H](C)O)C(C)C)C(C)C)C(C)C` [compound 916] (H-C[Ahx]WVTHRLAGLLSRSGGVVRKNFVPTDVGPFAF-NH2) was 1.8 nM.

For the origin of these results see patent publication US8168592B2 (Amgen Inc., priority 2005, dated 2012).
